From patent US20260265279A1, “RHO-ASSOCIATED PROTEIN KINASE INHIBITOR AND PREPARATION AND USE THEREOF” (Shanghai Zhimeng Biopharma, Inc, priority 2022, published 2026)

Columns and labels:
ROCK2 = biological target: T1, ROCK2 (Homo sapiens, UniProt O75116); experiment: Kinase IC50 assay, HTRF kinEASE STK S2 kit, ROCK2; format: biochemical; conditions: ATP 1 μM, 2.5 ng/well enzyme, 120 min
T1 construct: purchased Invitrogen PV3759
Method: (§1) Kinase IC50 assay was performed using the kinase assay kit HTRF kinEASE STK S2 kit (Cat #62ST2PEC, Cisbio). Kinases ROCK1 (Cat #PV3691) and ROCK2 (Cat #PV3759) were purchased from Invitrogen.
(§2) The working solution required for the assay was prepared with the appropriate reagents as described in the kinase assay kit instructions:
(§3) 1 mL of 1× Kinase Buffer contains 200 μL 5× Enzyme buffer, 5 μL 1M MgCl2 (Cat.M8266, Sigma), 1 μL 1M DTT (Cat.D5545, Sigma), 794 μL ddH2O.
(§4) The specific concentrations of STK-biotin substrate and ATP are shown in Table A. STK-biotin substrate and ATP were diluted with 1× kinase buffer to 2.5 times of the reaction concentration.
(§5) Concentrations of ROCK1/ROCK2 are shown in Table A. 5×ROCK1/ROCK2 Kinase working solution was prepared with 1× Kinase Buffer.
(§6) See Table A for the concentrations of Streptavidin-XL665 and STK Antibody-Cryptate in the reaction. 2× Streptavidin-XL665 and STK Antibody-Cryptate Working Solutions were prepared 5 minutes prior to the end of the kinase reaction using Detection Buffer from the kit.
(§7) A 100 μM compound mother solution was prepared using 1× kinase buffer containing 2.5% DMSO, and the mother solution was diluted 4-fold stepwise with the above DMSO-containing kinase buffer to obtain nine different concentrations of the compound solutions to be tested. In addition to the test compound wells, positive control wells (containing all reagents except the compounds) and negative control wells (containing all reagents except the compounds and kinase) were set up. 4 μL of the test compound solution was added to all reaction wells except the control wells and 4 μL of 2.5% DMSO solution was added to the control wells. Then 4 μL of previously prepared substrate and ATP working solution were added to all wells and mix well. Then, 2 μL/well of 5×ROCK1/ROCK2 kinase working solution (containing 2.5 ng ROCK1/ROCK2 kinase) was added to all reaction wells except negative control wells, and the negative control wells were made up to volume with 2 μL of 1× kinase buffer. Mix well, seal with plastic film and incubate at room temperature for 2 hours. Start preparing the assay solution 5 minutes before the end of the kinase reaction. After the end of the kinase reaction, 10 μL of prepared Streptavidin-XL665 and STK Antibody-Cryptate working solution were added to all reaction wells, the plates were sealed and mixed well, and then incubated at room temperature for 1 hour. Finally, the fluorescence signal was detected by SpectraMax i3x Multi-Mode Reader (Molecular Devices) (excitation wavelength is 320 nm, emission wavelength is 665 nm and 615 nm).
(§8) The inhibition rate in each well was calculated from the fluorescence intensity values of each well:
(§9) ER Emission Ratio, Emission light ratio=fluorescence intensity at 665 nm/fluorescence intensity at 615 nm;
(§10) ERcompound, ER of test compound wells; ERvehicle, ER of solvent (positive) control wells, ERblank, ER of blank (negative) control wells.
(§11) The graphs were plotted using the software GraphPad Prism 6.0, while the half inhibitory concentration (IC50) of each compound to be tested was obtained by fitting with Prism 6.0.

[1] = Pharmacokinetic study in male SD rats; format: in vivo; conditions: rat, plasma
Method: 1) Purpose of the Study: Obtain the Pharmacokinetic Characterization of the Compounds of the Present Invention in Male SD Rats
For each compound, 6 healthy male SD rats (weight range 200-250 g) was taken and divided into 2 groups of 3 each; Group 1 was administered intravenously in a single dose (see Table 2 for dosage) and Group 2 was administered orally in a single gavage (see Table 2 for dosage, fasted overnight before administration). Blood was collected by jugular vein or cardiac puncture at 0.083 (group 1 only), 0.25, 0.5, 1, 2, 4, 6 (group 2 only), 8 and 24 h after drug administration, respectively, and at least 0.2 mL of whole blood was collected from each sample into EDTA-K2 anticoagulant tubes, and the samples were mixed and placed on wet ice after sample collection, and then centrifuged to separate plasma (6,800 g, 6 min, 2-8° C.) at 1 h. The plasma samples were stored in ultra-low temperature refrigerators before analysis.
Experimental results: The pharmacokinetic parameters after administration were calculated from the blood concentration data obtained by LC-MS/MS assay using the non-compartmental model of WinNonlin® 7.0 software (Pharsight, Inc., USA) and are shown in the table below: […]

ROCK1 = biological target: T2, ROCK1 (Homo sapiens, UniProt Q13464); experiment: Kinase IC50 assay, HTRF kinEASE STK S2 kit, ROCK1; format: biochemical; conditions: ATP 1.5 μM, 2.5 ng/well enzyme, 120 min
T2 construct: purchased Invitrogen PV3691
T2 sequence (Q13464 1-535 limits assumed): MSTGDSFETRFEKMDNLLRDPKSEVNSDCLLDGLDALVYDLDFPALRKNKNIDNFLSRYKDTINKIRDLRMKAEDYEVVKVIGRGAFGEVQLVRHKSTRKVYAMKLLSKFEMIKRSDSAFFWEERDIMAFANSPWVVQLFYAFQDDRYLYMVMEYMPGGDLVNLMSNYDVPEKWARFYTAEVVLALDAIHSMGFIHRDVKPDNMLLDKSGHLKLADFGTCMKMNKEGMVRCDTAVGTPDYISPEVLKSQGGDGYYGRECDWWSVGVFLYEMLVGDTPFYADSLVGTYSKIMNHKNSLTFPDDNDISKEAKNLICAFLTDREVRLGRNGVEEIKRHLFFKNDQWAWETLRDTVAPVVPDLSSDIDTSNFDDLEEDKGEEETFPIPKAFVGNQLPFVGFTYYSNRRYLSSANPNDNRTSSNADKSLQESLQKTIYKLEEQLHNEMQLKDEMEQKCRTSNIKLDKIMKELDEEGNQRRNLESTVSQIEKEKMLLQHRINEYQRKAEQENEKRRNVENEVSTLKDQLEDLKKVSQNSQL
Method: as §1, §2, §3, §4, §5, §6, §7, §8, §9, §10, §11

[2] = po, gavage 10 mg/kg, fasted overnight

T1 sequence (O75116 5-554 limits assumed): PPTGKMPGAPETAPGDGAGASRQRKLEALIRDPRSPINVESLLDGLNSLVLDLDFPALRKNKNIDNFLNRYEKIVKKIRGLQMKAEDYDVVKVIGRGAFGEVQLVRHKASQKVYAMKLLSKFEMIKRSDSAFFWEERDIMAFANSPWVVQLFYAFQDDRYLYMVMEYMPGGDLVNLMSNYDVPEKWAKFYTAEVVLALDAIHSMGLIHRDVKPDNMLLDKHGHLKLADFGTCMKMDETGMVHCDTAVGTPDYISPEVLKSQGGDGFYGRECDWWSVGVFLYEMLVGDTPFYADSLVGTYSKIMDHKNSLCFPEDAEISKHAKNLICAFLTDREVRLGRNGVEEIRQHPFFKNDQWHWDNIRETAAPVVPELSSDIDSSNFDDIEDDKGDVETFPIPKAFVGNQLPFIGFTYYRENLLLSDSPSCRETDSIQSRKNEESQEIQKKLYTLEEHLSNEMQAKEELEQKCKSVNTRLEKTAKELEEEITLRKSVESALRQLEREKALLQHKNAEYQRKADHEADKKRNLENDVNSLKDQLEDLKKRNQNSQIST

IC50 (ROCK2): 0.104 µM
AUC(0-t) ([1]; intravenous injection 1 mg/kg): 1210 ng·h/mL
Cmax ([1]; intravenous injection 1 mg/kg): 765 ng/mL
Tmax ([1]; intravenous injection 1 mg/kg): 0.08 h
half-life ([1]; intravenous injection 1 mg/kg): 2.05 h
bioavailability ([1]; oral, gavage 10 mg/kg vs intravenous 1 mg/kg): 11.5%
AUC(0-t) [1, 2]: 1400 ng·h/mL
Cmax [1, 2]: 251 ng/mL
Tmax [1, 2]: 1.33 h
half-life [1, 2]: 3.47 h
IC50 (ROCK1): > 100 µM
Compound: Cn1c(C#Cc2nccc(Nc3ccc(-c4cn[nH]c4)cc3)n2)ccc1C(=O)N1CC(F)(F)C1 [Compound A1]
